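Cultured in 96-well plates, cells were exposed to test compound for 48 hours across five concentrations. Here, GI50 denotes the concentration required for 50% inhibition of growth. TGI is the concentration that stops growth completely.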
Experiments:
Experiment in all cases: NCI anticancer screen, dose series, 48 h
MOLT-4 leukemia = system: MOLT-4 leukemia
PC-3 prostate = system: PC-3 prostate
HOP-62 NSCLC = system: HOP-62 NSCLC
OVCAR-5 ovarian = system: OVCAR-5 ovarian
OVCAR-4 ovarian = system: OVCAR-4 ovarian
SF-268 CNS = system: SF-268 CNS
ACHN renal = system: ACHN renal
HL-60(TB) leukemia = system: HL-60(TB) leukemia
HCC-2998 colon = system: HCC-2998 colon
HOP-92 NSCLC = system: HOP-92 NSCLC
DU-145 prostate = system: DU-145 prostate
SN12C renal = system: SN12C renal
U251 CNS = system: U251 CNS
RPMI-8226 leukemia = system: RPMI-8226 leukemia
HT29 colon = system: HT29 colon
HCT-116 colon = system: HCT-116 colon
T-47D breast = system: T-47D breast
SF-539 CNS = system: SF-539 CNS
M14 melanoma = system: M14 melanoma
SNB-19 CNS = system: SNB-19 CNS
OVCAR-3 ovarian = system: OVCAR-3 ovarian
OVCAR-8 ovarian = system: OVCAR-8 ovarian
UACC-257 melanoma = system: UACC-257 melanoma
NCI/ADR-RES ovarian = system: NCI/ADR-RES ovarian
SK-MEL-2 melanoma = system: SK-MEL-2 melanoma
SF-295 CNS = system: SF-295 CNS
HS 578T breast = system: HS 578T breast
MALME-3M melanoma = system: MALME-3M melanoma
EKVX NSCLC = system: EKVX NSCLC
KM12 colon = system: KM12 colon
SK-OV-3 ovarian = system: SK-OV-3 ovarian
MDA-MB-231 breast = system: MDA-MB-231 breast
HCT-15 colon = system: HCT-15 colon
786-0 renal = system: 786-0 renal
CAKI-1 renal = system: CAKI-1 renal
RXF 393 renal = system: RXF 393 renal
CCRF-CEM leukemia = system: CCRF-CEM leukemia
IGROV1 ovarian = system: IGROV1 ovarian
A549 NSCLC = system: A549 NSCLC
A498 renal = system: A498 renal
BT-549 breast = system: BT-549 breast
MCF7 breast = system: MCF7 breast
TK-10 renal = system: TK-10 renal
SK-MEL-28 melanoma = system: SK-MEL-28 melanoma
SW-620 colon = system: SW-620 colon
SR leukemia = system: SR leukemia
SNB-75 CNS = system: SNB-75 CNS
K-562 leukemia = system: K-562 leukemia
NCI-H226 lung = system: NCI-H226 lung
NCI-H460 lung = system: NCI-H460 lung
SK-MEL-5 melanoma = system: SK-MEL-5 melanoma
MDA-MB-435 = system: MDA-MB-435
UO-31 renal = system: UO-31 renal
UACC-62 melanoma = system: UACC-62 melanoma
COLO 205 colon = system: COLO 205 colon
NCI-H522 lung = system: NCI-H522 lung
LOX IMVI melanoma = system: LOX IMVI melanoma

O=C1CC[C@H](N2Cc3c(OCc4ccc(CN5CCOCC5)cc4)cccc3C2=O)C(=O)N1
GI50 (MOLT-4 leukemia): > 100 µM | TGI (MOLT-4 leukemia): > 100 µM | GI50 (PC-3 prostate): > 100 µM | TGI (PC-3 prostate): > 100 µM | GI50 (HOP-62 NSCLC): > 100 µM | TGI (HOP-62 NSCLC): > 100 µM | GI50 (OVCAR-5 ovarian): > 100 µM | TGI (OVCAR-5 ovarian): > 100 µM | GI50 (OVCAR-4 ovarian): > 100 µM | TGI (OVCAR-4 ovarian): > 100 µM | GI50 (SF-268 CNS): > 100 µM | TGI (SF-268 CNS): > 100 µM | GI50 (ACHN renal): > 100 µM | TGI (ACHN renal): > 100 µM | GI50 (HL-60(TB) leukemia): 77.6 µM | TGI (HL-60(TB) leukemia): > 100 µM | GI50 (HCC-2998 colon): > 100 µM | TGI (HCC-2998 colon): > 100 µM | GI50 (HOP-92 NSCLC): > 100 µM | TGI (HOP-92 NSCLC): > 100 µM | GI50 (DU-145 prostate): > 100 µM | TGI (DU-145 prostate): > 100 µM | GI50 (SN12C renal): > 100 µM | TGI (SN12C renal): > 100 µM | GI50 (U251 CNS): > 100 µM | TGI (U251 CNS): > 100 µM | GI50 (RPMI-8226 leukemia): > 100 µM | TGI (RPMI-8226 leukemia): > 100 µM | GI50 (HT29 colon): > 100 µM | TGI (HT29 colon): > 100 µM | GI50 (HCT-116 colon): > 100 µM | TGI (HCT-116 colon): > 100 µM | GI50 (T-47D breast): > 100 µM | TGI (T-47D breast): > 100 µM | GI50 (SF-539 CNS): > 100 µM | TGI (SF-539 CNS): > 100 µM | GI50 (M14 melanoma): > 100 µM | TGI (M14 melanoma): > 100 µM | GI50 (SNB-19 CNS): > 100 µM | TGI (SNB-19 CNS): > 100 µM | GI50 (OVCAR-3 ovarian): > 100 µM | TGI (OVCAR-3 ovarian): > 100 µM | GI50 (OVCAR-8 ovarian): > 100 µM | TGI (OVCAR-8 ovarian): > 100 µM | GI50 (UACC-257 melanoma): > 100 µM | TGI (UACC-257 melanoma): > 100 µM | GI50 (NCI/ADR-RES ovarian): > 100 µM | TGI (NCI/ADR-RES ovarian): > 100 µM | GI50 (SK-MEL-2 melanoma): > 100 µM | TGI (SK-MEL-2 melanoma): > 100 µM | GI50 (SF-295 CNS): > 100 µM | TGI (SF-295 CNS): > 100 µM | GI50 (HS 578T breast): > 100 µM | TGI (HS 578T breast): > 100 µM | GI50 (MALME-3M melanoma): > 100 µM | TGI (MALME-3M melanoma): > 100 µM | GI50 (EKVX NSCLC): > 100 µM | TGI (EKVX NSCLC): > 100 µM | GI50 (KM12 colon): > 100 µM | TGI (KM12 colon): > 100 µM | GI50 (SK-OV-3 ovarian): > 100 µM | TGI (SK-OV-3 ovarian): > 100 µM | GI50 (MDA-MB-231 breast): > 100 µM | TGI (MDA-MB-231 breast): > 100 µM | GI50 (HCT-15 colon): > 100 µM | TGI (HCT-15 colon): > 100 µM | GI50 (786-0 renal): > 100 µM | TGI (786-0 renal): > 100 µM | GI50 (CAKI-1 renal): > 100 µM | TGI (CAKI-1 renal): > 100 µM | GI50 (RXF 393 renal): > 100 µM | TGI (RXF 393 renal): > 100 µM | GI50 (CCRF-CEM leukemia): > 100 µM | TGI (CCRF-CEM leukemia): > 100 µM | GI50 (IGROV1 ovarian): > 100 µM | TGI (IGROV1 ovarian): > 100 µM | GI50 (A549 NSCLC): > 100 µM | TGI (A549 NSCLC): > 100 µM | GI50 (A498 renal): > 100 µM | TGI (A498 renal): > 100 µM | GI50 (BT-549 breast): 98.9 µM | TGI (BT-549 breast): > 100 µM | GI50 (MCF7 breast): > 100 µM | TGI (MCF7 breast): > 100 µM | GI50 (TK-10 renal): > 100 µM | TGI (TK-10 renal): > 100 µM | GI50 (SK-MEL-28 melanoma): > 100 µM | TGI (SK-MEL-28 melanoma): > 100 µM | GI50 (SW-620 colon): > 100 µM | TGI (SW-620 colon): > 100 µM | GI50 (SR leukemia): 4.83 µM | TGI (SR leukemia): > 100 µM | GI50 (SNB-75 CNS): > 100 µM | TGI (SNB-75 CNS): > 100 µM | GI50 (K-562 leukemia): > 100 µM | TGI (K-562 leukemia): > 100 µM | GI50 (NCI-H226 lung): > 100 µM | TGI (NCI-H226 lung): > 100 µM | GI50 (NCI-H460 lung): > 100 µM | TGI (NCI-H460 lung): > 100 µM | GI50 (SK-MEL-5 melanoma): > 100 µM | TGI (SK-MEL-5 melanoma): > 100 µM | GI50 (MDA-MB-435): > 100 µM | TGI (MDA-MB-435): > 100 µM | GI50 (UO-31 renal): > 100 µM | TGI (UO-31 renal): > 100 µM | GI50 (UACC-62 melanoma): > 100 µM | TGI (UACC-62 melanoma): > 100 µM | GI50 (COLO 205 colon): > 100 µM | TGI (COLO 205 colon): > 100 µM | GI50 (NCI-H522 lung): > 100 µM | TGI (NCI-H522 lung): > 100 µM | GI50 (LOX IMVI melanoma): > 100 µM | TGI (LOX IMVI melanoma): > 100 µM

From PubChem BioAssay (NCI)
